Data reported in patent US7192746B2, “α-Isomaltosyltransferase, process for producing the same and use thereof” (Kabushiki Kaisha Hayashibara Seibutsu Kagaku Kenkyujo, priority 2000, dated 2007).

Experiments:
Type in all cases: biochemical
[1] = test system: α-isomaltosyl-transferring enzyme from Bacillus globisporus N75; experiment: Action on saccharides (substrates, TLC); parameters: key: −: there was found no substrate change before and after the enzymatic reaction; +: there were found both the reduction of substrate and the formation of cyclotetrasaccharide after the enzymatic reaction; conditions: 2 units/g substrate, 2% (w/v) substrate, 30° C., pH 6.0, 24 hours
How it was run: (§1)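 TLC detection used sulfuric acid-methanol coloration for all sugars and diphenylamine-aniline for reducing ones, after development in n-butanol/pyridine/water (6:4:1). Reactions contained 2% (w/v) substrate and 2 units/g substrate of purified enzyme, incubated 24 hours at 30° C., pH 6.0.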

[2] = test system: α-isomaltosyl-transferring enzyme from Arthrobacter globiformis A19; experiment: Action on saccharides (substrates, TLC); parameters: key: −: there was found no substrate change before and after the enzymatic reaction; +: there were found both the reduction of substrate and the formation of cyclotetrasaccharide after the enzymatic reaction; conditions: partially purified enzyme, 2 units/g substrate, 2% (w/v) substrate, 30° C., pH 6.0, 24 hours
How it was run: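 Purified enzyme (partially purified for A. globiformis A19) at 2 units/g substrate acted on each saccharide at 2% (w/v), pH 6.0, 30° C., 24 h. Pre- and post-reaction mixtures ran on silica gel TLC in n-butanol/pyridine/water (6:4:1). Total sugars were stained by sulfuric acid-methanol and reducing sugars by diphenylamine-aniline.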

[3] = test system: α-isomaltosyl-transferring enzyme from Bacillus globisporus C11; experiment: Action on saccharides (substrates, TLC); parameters: key: −: there was found no substrate change before and after the enzymatic reaction; +: there were found both the reduction of substrate and the formation of cyclotetrasaccharide after the enzymatic reaction; conditions: 2 units/g substrate, 2% (w/v) substrate, 30° C., pH 6.0, 24 hours
How it was run: as §1

[4] = test system: α-isomaltosyl-transferring enzyme from Arthrobacter ramosus S1; experiment: Action on saccharides (substrates, TLC); parameters: key: −: there was found no substrate change before and after the enzymatic reaction; +: there were found both the reduction of substrate and the formation of cyclotetrasaccharide after the enzymatic reaction; conditions: 2 units/g substrate, 2% (w/v) substrate, 30° C., pH 6.0, 24 hours
How it was run: as §1

[5] = test system: α-isomaltosyl-transferring enzyme from Bacillus globisporus C9; experiment: Action on saccharides (substrates, TLC); parameters: key: −: there was found no substrate change before and after the enzymatic reaction; +: there were found both the reduction of substrate and the formation of cyclotetrasaccharide after the enzymatic reaction; conditions: 2 units/g substrate, 2% (w/v) substrate, 30° C., pH 6.0, 24 hours
How it was run: as §1

[6] = test system: α-isomaltosyl-transferring enzyme from Bacillus globisporus N75; experiment: Specificity to transferring acceptor; parameters: key: −: no saccharide transferred product was formed; ±: a saccharide-transferred product formed in an amount of less than one percent to the total sugars; +: a saccharide-transferred product was formed in an amount of over one percent but below 10% to the total sugars; ++: a saccharide-transferred product was formed in an amount of over 10% to the total sugars; conditions: panose as saccharide donor, 10 units/g substrate, 3.2% (w/v), 30° C., pH 6.0, 24 hours
How it was run: (§2)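 Scoring is presence or absence of a transfer product, detected by HPLC for tri- or larger saccharides and by GLC for smaller ones. Reactions: 3.2% (w/v) saccharide with panose as donor in equal amount, 10 units/g substrate of purified or partially purified enzyme, pH 6.0, 30 °C, 24 h.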

[7] = test system: α-isomaltosyl-transferring enzyme from Arthrobacter globiformis A19; experiment: Specificity to transferring acceptor; parameters: key: −: no saccharide transferred product was formed; ±: a saccharide-transferred product formed in an amount of less than one percent to the total sugars; +: a saccharide-transferred product was formed in an amount of over one percent but below 10% to the total sugars; ++: a saccharide-transferred product was formed in an amount of over 10% to the total sugars; conditions: partially purified enzyme, panose as saccharide donor, 10 units/g substrate, 3.2% (w/v), 30° C., pH 6.0, 24 hours
How it was run: as §2

[8] = test system: α-isomaltosyl-transferring enzyme from Bacillus globisporus C11; experiment: Specificity to transferring acceptor; parameters: key: −: no saccharide transferred product was formed; ±: a saccharide-transferred product formed in an amount of less than one percent to the total sugars; +: a saccharide-transferred product was formed in an amount of over one percent but below 10% to the total sugars; ++: a saccharide-transferred product was formed in an amount of over 10% to the total sugars; conditions: panose as saccharide donor, 10 units/g substrate, 3.2% (w/v), 30° C., pH 6.0, 24 hours
How it was run: as §2

[9] = test system: α-isomaltosyl-transferring enzyme from Arthrobacter ramosus S1; experiment: Specificity to transferring acceptor; parameters: key: −: no saccharide transferred product was formed; ±: a saccharide-transferred product formed in an amount of less than one percent to the total sugars; +: a saccharide-transferred product was formed in an amount of over one percent but below 10% to the total sugars; ++: a saccharide-transferred product was formed in an amount of over 10% to the total sugars; conditions: panose as saccharide donor, 10 units/g substrate, 3.2% (w/v), 30° C., pH 6.0, 24 hours
How it was run: as §2

[10] = test system: α-isomaltosyl-transferring enzyme from Bacillus globisporus C9; experiment: Specificity to transferring acceptor; parameters: key: −: no saccharide transferred product was formed; ±: a saccharide-transferred product formed in an amount of less than one percent to the total sugars; +: a saccharide-transferred product was formed in an amount of over one percent but below 10% to the total sugars; ++: a saccharide-transferred product was formed in an amount of over 10% to the total sugars; conditions: panose as saccharide donor, 10 units/g substrate, 3.2% (w/v), 30° C., pH 6.0, 24 hours
How it was run: as §2

Row | Compound | Enzymatic action for forming cyclotetrasaccharide, Enzyme of Strain N75 [1] | Enzymatic action for forming cyclotetrasaccharide, Enzyme of Strain A19 [2] | Enzymatic action for forming cyclotetrasaccharide, Enzyme of Strain C11 [3] | Enzymatic action for forming cyclotetrasaccharide, Enzyme of Strain S1 [4] | Enzymatic action for forming cyclotetrasaccharide, Enzyme of Strain C9 [5] | Product of transferring reaction, Enzyme of Strain N75 [6] | Product of transferring reaction, Enzyme of Stain A19 [7] | Product of transferring reaction, Enzyme of Strain C11 [8] | Product of transferring reaction, Enzyme of Strain S1 [9] | Product of transferring reaction, Enzyme of Strain C9 [10]
1 | OC[C@H]1O[C@@](CO)(O[C@H]2O[C@H](CO)[C@@H](O)[C@H](O)[C@H]2O)[C@@H](O)[C@@H]1O [Sucrose, sucrose] | − | − | − | − | − | + (a saccharide-transferred product was formed in an amount of over one percent but below 10% to the total sugars) | + (a saccharide-transferred product was formed in an amount of over one percent but below 10% to the total sugars) | + (a saccharide-transferred product was formed in an amount of over one percent but below 10% to the total sugars) | + (a saccharide-transferred product was formed in an amount of over one percent but below 10% to the total sugars) | + (a saccharide-transferred product was formed in an amount of over one percent but below 10% to the total sugars)
2 | OC[C@H]1O[C@H](O[C@H]2O[C@H](CO)[C@@H](O)[C@H](O)[C@H]2O)[C@H](O)[C@@H](O)[C@@H]1O [α,α-Trehalose, α,α-trehalose] | − | − | − | − | − | + (a saccharide-transferred product was formed in an amount of over one percent but below 10% to the total sugars) | + (a saccharide-transferred product was formed in an amount of over one percent but below 10% to the total sugars) | + (a saccharide-transferred product was formed in an amount of over one percent but below 10% to the total sugars) | + (a saccharide-transferred product was formed in an amount of over one percent but below 10% to the total sugars) | + (a saccharide-transferred product was formed in an amount of over one percent but below 10% to the total sugars)
3 | OC[C@H]1O[C@@H](O[C@H]2O[C@H](CO)[C@@H](O)[C@H](O)[C@H]2O)[C@H](O)[C@@H](O)[C@@H]1O [α,β-trehalose] | − | − | − | − | − | ++ (a saccharide-transferred product was formed in an amount of over 10% to the total sugars) | ++ (a saccharide-transferred product was formed in an amount of over 10% to the total sugars) | ++ (a saccharide-transferred product was formed in an amount of over 10% to the total sugars) | ++ (a saccharide-transferred product was formed in an amount of over 10% to the total sugars) | ++ (a saccharide-transferred product was formed in an amount of over 10% to the total sugars)
4 | OC[C@H]1O[C@@H]2O[C@H]3[C@H](O)[C@@H](O)[C@@H](O[C@H]4[C@H](O)[C@@H](O)[C@@H](O[C@H]5[C@H](O)[C@@H](O)[C@@H](O[C@H]6[C@H](O)[C@@H](O)[C@@H](O[C@H]7[C@H](O)[C@@H](O)[C@@H](O[C@H]1[C@H](O)[C@H]2O)O[C@@H]7CO)O[C@@H]6CO)O[C@@H]5CO)O[C@@H]4CO)O[C@@H]3CO [α-Cyclodextrin, α-cyclodextrin] | − | − | − | − | − | − | − | − | − | −
5 | OC[C@H]1O[C@@H]2O[C@H]3[C@H](O)[C@@H](O)[C@@H](O[C@H]4[C@H](O)[C@@H](O)[C@@H](O[C@H]5[C@H](O)[C@@H](O)[C@@H](O[C@H]6[C@H](O)[C@@H](O)[C@@H](O[C@H]7[C@H](O)[C@@H](O)[C@@H](O[C@H]8[C@H](O)[C@@H](O)[C@@H](O[C@H]1[C@H](O)[C@H]2O)O[C@@H]8CO)O[C@@H]7CO)O[C@@H]6CO)O[C@@H]5CO)O[C@@H]4CO)O[C@@H]3CO [β-Cyclodextrin, β-cyclodextrin] | − | − | − | − | − | − | − | − | − | −
6 | OC[C@H]1O[C@@H]2O[C@H]3[C@H](O)[C@@H](O)[C@@H](O[C@H]4[C@H](O)[C@@H](O)[C@@H](O[C@H]5[C@H](O)[C@@H](O)[C@@H](O[C@H]6[C@H](O)[C@@H](O)[C@@H](O[C@H]7[C@H](O)[C@@H](O)[C@@H](O[C@H]8[C@H](O)[C@@H](O)[C@@H](O[C@H]9[C@H](O)[C@@H](O)[C@@H](O[C@H]1[C@H](O)[C@H]2O)O[C@@H]9CO)O[C@@H]8CO)O[C@@H]7CO)O[C@@H]6CO)O[C@@H]5CO)O[C@@H]4CO)O[C@@H]3CO [γ-Cyclodextrin, γ-cyclodextrin] | − | − | − | − | − | − | − | − | − | −
7 | maltopentaose | − | − | − | − | − | ± (a saccharide-transferred product formed in an amount of less than one percent to the total sugars) | + (a saccharide-transferred product was formed in an amount of over one percent but below 10% to the total sugars) | + (a saccharide-transferred product was formed in an amount of over one percent but below 10% to the total sugars) | ± (a saccharide-transferred product formed in an amount of less than one percent to the total sugars) | + (a saccharide-transferred product was formed in an amount of over one percent but below 10% to the total sugars)
